Test results reported in ChEMBL document CHEMBL5518181, “Studies of antibacterial activity (in vitro and in vivo) and mode of action for des-acyl tridecaptins (DATs)” (Eur J Med Chem, 2024).
≈ marks a conversion by molar mass, not a printed value. Calls of active or inactive are those of the source. No cut-off for these calls is given here.

Key:
Escherichia coli [1] = assay: Antibacterial activity against wild-type Escherichia coli ATCC 25922 assessed as inhibition of bacterial growth incubated for 18 hrs; assay type: functional; conditions: read-out: MIC100
Klebsiella pneumoniae = assay: Antibacterial activity against wild-type Klebsiella pneumoniae ATCC 13883 assessed as inhibition of bacterial growth incubated for 18 hrs; assay type: functional; conditions: read-out: MIC100
[2] = Lipophilicity, logD of compound at pH 7.4; assay type: physicochemical; conditions: buffer
[3] = Aqueous solubility of compound at pH 4.6; assay type: physicochemical
[4] = Aqueous solubility of compound at pH 7.4; assay type: physicochemical
Escherichia coli [5] = assay: Antibacterial activity against Escherichia coli ATCC BAA-2469 expressing NDM-1 assessed as inhibition of bacterial growth incubated for 18 hrs; assay type: functional; conditions: read-out: MIC100
Escherichia coli [6] = assay: Antibacterial activity against colistin resistant Escherichia coli NCTC 13846 harboring mcr-1 gene assessed as inhibition of bacterial growth incubated for 18 hrs; assay type: functional; conditions: read-out: MIC100
Escherichia coli [7] = assay: Antibacterial activity against Escherichia coli Swiss 7 harboring mcr-1 gene assessed as inhibition of bacterial growth incubated for 18 hrs; assay type: functional; conditions: read-out: MIC100
Escherichia coli [8] = assay: Antibacterial activity against Escherichia coli Swiss 9 harboring mcr-1 gene assessed as inhibition of bacterial growth incubated for 18 hrs; assay type: functional; conditions: read-out: MIC100
Morganella morganii = assay: Antibacterial activity against Morganella morganii ATCC 25830 assessed as inhibition of bacterial growth incubated for 18 hrs; assay type: functional; conditions: read-out: MIC100
Proteus mirabilis = assay: Antibacterial activity against Proteus mirabilis ATCC 7002 assessed as inhibition of bacterial growth incubated for 18 hrs; assay type: functional; conditions: read-out: MIC100
Pseudomonas aeruginosa = assay: Antibacterial activity against efflux-deficient Pseudomonas aeruginosa PAO750 assessed as inhibition of bacterial growth incubated for 18 hrs; assay type: functional; conditions: read-out: MIC100
Staphylococcus aureus = assay: Antibacterial activity against wild type Staphylococcus aureus USA300 assessed as inhibition of bacterial growth incubated for 18 hrs; assay type: functional; conditions: read-out: MIC100
[9] = Drug uptake in Escherichia coli ATCC 25922 assessed as fold increase in cellular drug concentration at 10 uM incubated for 10 mins by LC-MS/MS analysis; assay type: ADME
[10] = Drug localization in membrane fraction of Escherichia coli ATCC 25922 at 10 uM incubated for 10 mins by LC-MS/MS analysis; assay type: ADME, cell membranes
[11] = Drug uptake in Proteus mirabilis ATCC 7002 whole cells at 10 uM incubated for 10 mins by LC-MS/MS analysis; assay type: ADME
[12] = Drug uptake in Pseudomonas aeruginosa PAO1 whole cells assessed as log10 increase in drug accumulation at 10 uM incubated for 10 mins by LC-MS/MS analysis relative to H-(D-Val)-(D-Dab)-Gly-(D-Ser)-(D-Trp)-Ser-Dab-(D-Dab)-Phe-Glu-Val-(D-allo-Ile)-Ala-OH; assay type: ADME
[13] = Drug uptake in Acinetobacter baumannii ATCC 19606 whole cells assessed as log10 increase in drug accumulation at 10 uM incubated for 10 mins by LC-MS/MS analysis relative to H-(D-Val)-(D-Dab)-Gly-(D-Ser)-(D-Trp)-Ser-Dab-(D-Dab)-Phe-Glu-Val-(D-allo-Ile)-Ala-OH; assay type: ADME
Cell membrane [14] = assay: Induction of membrane permeabilization in Escherichia coli ATCC 25922 at 4 to 10 ug/ml measured after 30 mins by Sytox Green labelling based microscopic analysis; assay type: cell membranes; conditions: dose 4-10 µg/ml
Cell membrane [15] = assay: Induction of membrane permeabilization in Klebsiella pneumoniae ATCC 13883 at 4 to 10 ug/ml measured after 30 mins by Sytox Green labelling based microscopic analysis; assay type: cell membranes; conditions: dose 4-10 µg/ml

For `CCCCCCCC(=O)N[C@@H](C(=O)N[C@H](CCN)C(=O)NCC(=O)N[C@H](CO)C(=O)N[C@H](Cc1c[nH]c2ccccc12)C(=O)N[C@@H](CO)C(=O)N[C@@H](CCN)C(=O)N[C@H](CCN)C(=O)N[C@@H](Cc1ccccc1)C(=O)N[C@@H](CCC(=O)O)C(=O)N[C@H](C(=O)N[C@@H](C(=O)N[C@@H](C)C(=O)O)[C@@H](C)CC)C(C)C)C(C)C`, the MIC (Escherichia coli [1]) was 2 µg/mL (≈ 1.32 µM), the MIC (Klebsiella pneumoniae) was 4 µg/mL (≈ 2.63 µM) and the logD [2] was 2.24. It also gave a solubility [3] of 88 mg/mL (≈ 57900 µM), a solubility [4] of 30 mg/mL (≈ 19700 µM) and an MIC (Escherichia coli [5]) of 1 µg/mL (≈ 0.658 µM). It also gave an MIC (Escherichia coli [6]) of 1 µg/mL (≈ 0.658 µM), an MIC (Escherichia coli [7]) of 1 µg/mL (≈ 0.658 µM) and an MIC (Escherichia coli [8]) of 0.5 µg/mL (≈ 0.329 µM). For the same molecule, the MIC (Morganella morganii) was greater than 32 µg/mL, the MIC (Proteus mirabilis) was 32 µg/mL (≈ 21 µM) and the MIC (Pseudomonas aeruginosa) was greater than 32 µg/mL. For the same molecule, the MIC (Staphylococcus aureus) was 32 µg/mL (≈ 21 µM), the “fold change (FC)” value [9] was 30 and the Drug uptake [10] was “Active”. For the same molecule, the Drug uptake [11] was “Active”, the “log(activity)” value [12] was 2 and the “log(activity)” value [13] was 2. For the same molecule, the Activity (Cell membrane [14]) was “Active” and the Activity (Cell membrane [15]) was “Active”.
